Paper PMC11858051, “PK/PD Analysis of High-Dose Daptomycin Use in the Treatment of Bone and Joint Infections: Data from a Real-World Setting” (Microorganisms, 2025)

How the values were obtained:
[1] = C-reactive protein as surrogate efficacy marker during TDM; type: in vivo, human
Experimental: Therefore, we attempted to correlate the targeted AUC0–24h with CRP levels measured after treatment. The CRP was obtained at the time of diagnosis and at the end of treatment or between stages in two-stage exchange arthroplasty.

[2] = PK/PD target attainment at first TDM (eAUC0–24h and trough thresholds)
Experimental: All patients performed daptomycin TDM according to the clinical practice, and its daily area under the concentration–time curve (eAUC0–24h; including eAUC24–48h in case of other day administration, meaning when the drug dose was given every 48 h instead of every 24 h as indicated in the SmPC as the standard dose) was estimated according to the following Equation (1) reported in the literature [18, 19], based on daptomycin trough and peak plasma concentrations: (1) AUC0–24 h = 0.5 × t^′×Cmax +∫t^′infinityCmax ×e^−kel×(t)dt− ∫24infinityCmin ×e^−kel×(t)dt
For the analysis of the safety profile of daptomycin, we considered the main PK parameters expressing the overall exposure to the antibiotic and its property to be cleared, such as eAUC0–24h and the trough plasma concentrations, respectively. For the efficacy daptomycin PK/PD targets, we considered the main PK parameter indicating the daily exposure to daptomycin which is represented by the eAUC0–24h and we combined this with the pertinent PD parameter of interest of bacterial disease which is the Minimum Inhibitory Concentration (MIC) of the isolated pathogen.

[3] = human, in vivo
Experimental: This is a retrospective, monocentric study, including adult patients with a suspected or documented diagnosis of Gram-positive BJI who received daptomycin and whose plasma concentrations were measured once the steady state was reached. The study was approved by the Institutional Review Board of University of Udine (Prot IRB: 266/2023). We included all patients who were hospitalized at our University Hospital from July 2022 to December 2023. Data were retrieved from the hospital’s electronic registry, selecting all TDM performed by the Clinical Pharmacology Institute of ASU FC in the time frame of interest and then identifying the analyses required by the orthopedic wards (see Figure 1).
The peak and trough concentrations of daptomycin were determined through blood samples collected 30 min after the drug infusion and before dosing, respectively, on day 3 of therapy, once steady state was achieved. The drug clearance was estimated as apparent clearance, calculated as the […].
Daptomycin concentrations were measured by a validated High-Performance Liquid Chromatography–Ultraviolet (HPLC-UV) method previously published, using Nexera-i 2040 LC, Shimadzu® (Shimadzu USA Manufacturing INC, Canby, OR, USA).

[4] = single patient with CPK 1000 U/L

## CCCCCCCCCC(=O)N[C@@H](Cc1c[nH]c2ccccc12)C(=O)N[C@H](CC(N)=O)C(=O)N[C@@H](CC(=O)O)C(=O)N[C@@H]1C(=O)NCC(=O)N[C@@H](CCCN)C(=O)N[C@@H](CC(=O)O)C(=O)N[C@H](C)C(=O)N[C@@H](CC(=O)O)C(=O)NCC(=O)N[C@H](CO)C(=O)N[C@@H]([C@H](C)CC(=O)O)C(=O)N[C@@H](CC(=O)c2ccccc2N)C(=O)O[C@@H]1C [daptomycin, Daptomycin]
[1]; 155 measurements, median
  median CRP during TDM: 28.99 mg/L
[1]; aggressive eAUC0–24h group, Mann–Whitney p = 0.029 vs <939
  median CRP when eAUC0–24h >939 mg·h/L: 17.47 mg/L
[1]; eAUC0–24h < 939 mg·h/L group
  median CRP when eAUC0–24h < 939 mg·h/L: 40.60 mg/L
132 eosinophil count measurements at basal time and during TDM
  cases with increase in absolute eosinophil count at follow-up: 108 cases
During therapy
  other adverse events: No other adverse events were reported
[4]
  eAUC0–24h of the patient with high CPK: 1051 µg·h/mL
  plasma peak concentration of the patient with high CPK: 84.4 mg/L
  plasma trough concentration of the patient with high CPK: 18.7 mg/L
Single patient, baseline 325 U/L
  plasma CPK concentration reached in the one patient with high CPK: 1000 U/L
[2]; dosing suggested in the SmPC
  patients not receiving adequate doses for the PK/PD efficacy and safety targets: 68.8%
[2]; first TDM, 6 of 77 patients, doses according to SmPC
  patients underexposed (eAUC0–24h < 666 mg·h/L): 7.8%
[2]; first TDM, 16 of 77 patients
  patients with high eAUC0–24h to monitor (939–1174 mg·h/L) and trough <24.3 mg/L: 20.8%
[2]; first TDM, 26 of 77 patients
  patients with eAUC0–24h > 1174 mg·h/L: 33.8%
[2]; first TDM, 27 of 77 patients
  patients on target (eAUC0–24h 666–939 mg·h/L and trough < 24.3 mg/L): 35.1%
[3]
  estimated AUC0–24h, maximum value: 2263 µg·h/mL
  estimated AUC0–24h, minimum value: 395.7 µg·h/mL
  exposure in females compared with males (eAUC0–24h, trough, peak, clearance, also dose-adjusted): Females are overexposed to daptomycin compared with males
  median dose-adjusted eAUC0–24h (eAUC0–24h/D), BMI > 25 kg/m^2: 112.6
  median dose-adjusted eAUC0–24h (eAUC0–24h/D), BMI ≤ 25 kg/m^2: 89.58
  median eAUC between 24 and 48 h after dosing (eAUC24–48h), other day administration: 339.8 µg·h/mL
  median eAUC within 24 h from dosing, other day administration: 1060 µg·h/mL
  median estimated AUC0–24h: 996.3 µg·h/mL
  median estimated drug clearance: 12.2 mL/min
